This note sets out measurements from ChEMBL document CHEMBL1201862, “PubChem BioAssay data set” (2004).

For assay [1], the system named is Streptococcus sp. 'group A'. In words: growth inhibition of control SK(-) GAS strain, dose response, counter-screen for streptokinase expression inhibitor project, luminescence, kanamycin, BacTiterGlo, confirmation (AID 1900). It is filed as functional, organism-based.
In assay [2] the target is T1, Streptokinase A (Streptococcus pyogenes serotype M1, UniProt P10520).
T1 sequence (P10520 whole entry): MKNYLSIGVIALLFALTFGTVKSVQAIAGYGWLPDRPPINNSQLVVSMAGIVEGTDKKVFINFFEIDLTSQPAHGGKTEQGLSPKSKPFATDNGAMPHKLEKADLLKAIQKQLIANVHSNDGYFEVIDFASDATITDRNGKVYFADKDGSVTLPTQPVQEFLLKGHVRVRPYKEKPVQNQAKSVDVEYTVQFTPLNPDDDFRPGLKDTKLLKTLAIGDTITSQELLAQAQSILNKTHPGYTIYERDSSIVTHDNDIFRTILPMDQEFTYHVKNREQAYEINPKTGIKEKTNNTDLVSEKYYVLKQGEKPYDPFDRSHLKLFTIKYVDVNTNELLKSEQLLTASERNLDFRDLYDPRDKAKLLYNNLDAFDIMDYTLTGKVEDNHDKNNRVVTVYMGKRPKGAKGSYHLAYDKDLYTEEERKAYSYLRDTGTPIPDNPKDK
Nature of the assay: S. pyogenes streptokinase expression inhibitors, potency, dose response, plasminogen activation absorbance, OD405 (AID 1914).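 Further: secreted streptokinase activity via plasminogen activation per viability signal from cell pellet.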 The format is functional, Streptococcus pyogenes M1 GAS.

A short description of assay [3]: inhibitors of intracellular T. cruzi replication, confirmation, NIH3T3 host cells, beta-gal luminescence (AID 2044).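 Further: intracellular parasites grown in NIH/3T3 mouse fibroblasts as host cells; luminescent beta-galactosidase reporter signal from transgenic T. cruzi replicating inside host cells; inhibitors lower the luminescence signal.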 It is filed as functional, cell-based.
Assay [4] in a line: cytotoxicity toward NIH3T3 fibroblasts, dose response, counter-screen, cell-based, ATP luminescence, mouse fibroblasts (AID 2010).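 Further: cells exposed to compound for about 90 hours before reading.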 It is filed as functional.
The subject of assay [5] is Streptococcus. Nature of the assay: Group A Streptococcus viability loss, dose response, counter-screen for streptokinase expression inhibitor project, luminescence, BacTiterGlo (AID 1915).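 Further: potency for reduction of bacterial viability or growth.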 It is filed as functional, organism-based.
The target of assay [6] is T2, Exodeoxyribonuclease V (Escherichia coli (strain K12), UniProt P04993+P07648+P08394).
T2 sequence (P04993 whole entry): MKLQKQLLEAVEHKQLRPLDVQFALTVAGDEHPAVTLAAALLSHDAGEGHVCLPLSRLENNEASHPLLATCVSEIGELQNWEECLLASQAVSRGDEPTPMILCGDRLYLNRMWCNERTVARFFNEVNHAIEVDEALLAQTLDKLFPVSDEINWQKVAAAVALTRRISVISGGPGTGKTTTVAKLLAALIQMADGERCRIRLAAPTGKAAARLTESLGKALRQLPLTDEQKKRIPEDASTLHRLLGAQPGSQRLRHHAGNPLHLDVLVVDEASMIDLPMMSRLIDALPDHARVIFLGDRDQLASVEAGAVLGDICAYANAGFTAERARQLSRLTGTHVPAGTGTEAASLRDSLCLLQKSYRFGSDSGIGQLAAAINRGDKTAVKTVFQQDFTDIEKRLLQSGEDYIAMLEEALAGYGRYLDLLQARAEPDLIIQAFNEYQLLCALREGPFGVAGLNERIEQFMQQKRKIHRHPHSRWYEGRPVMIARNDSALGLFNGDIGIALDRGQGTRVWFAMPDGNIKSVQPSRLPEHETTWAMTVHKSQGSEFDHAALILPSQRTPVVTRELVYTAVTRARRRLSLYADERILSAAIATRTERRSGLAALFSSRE
T2 sequence (P07648 whole entry): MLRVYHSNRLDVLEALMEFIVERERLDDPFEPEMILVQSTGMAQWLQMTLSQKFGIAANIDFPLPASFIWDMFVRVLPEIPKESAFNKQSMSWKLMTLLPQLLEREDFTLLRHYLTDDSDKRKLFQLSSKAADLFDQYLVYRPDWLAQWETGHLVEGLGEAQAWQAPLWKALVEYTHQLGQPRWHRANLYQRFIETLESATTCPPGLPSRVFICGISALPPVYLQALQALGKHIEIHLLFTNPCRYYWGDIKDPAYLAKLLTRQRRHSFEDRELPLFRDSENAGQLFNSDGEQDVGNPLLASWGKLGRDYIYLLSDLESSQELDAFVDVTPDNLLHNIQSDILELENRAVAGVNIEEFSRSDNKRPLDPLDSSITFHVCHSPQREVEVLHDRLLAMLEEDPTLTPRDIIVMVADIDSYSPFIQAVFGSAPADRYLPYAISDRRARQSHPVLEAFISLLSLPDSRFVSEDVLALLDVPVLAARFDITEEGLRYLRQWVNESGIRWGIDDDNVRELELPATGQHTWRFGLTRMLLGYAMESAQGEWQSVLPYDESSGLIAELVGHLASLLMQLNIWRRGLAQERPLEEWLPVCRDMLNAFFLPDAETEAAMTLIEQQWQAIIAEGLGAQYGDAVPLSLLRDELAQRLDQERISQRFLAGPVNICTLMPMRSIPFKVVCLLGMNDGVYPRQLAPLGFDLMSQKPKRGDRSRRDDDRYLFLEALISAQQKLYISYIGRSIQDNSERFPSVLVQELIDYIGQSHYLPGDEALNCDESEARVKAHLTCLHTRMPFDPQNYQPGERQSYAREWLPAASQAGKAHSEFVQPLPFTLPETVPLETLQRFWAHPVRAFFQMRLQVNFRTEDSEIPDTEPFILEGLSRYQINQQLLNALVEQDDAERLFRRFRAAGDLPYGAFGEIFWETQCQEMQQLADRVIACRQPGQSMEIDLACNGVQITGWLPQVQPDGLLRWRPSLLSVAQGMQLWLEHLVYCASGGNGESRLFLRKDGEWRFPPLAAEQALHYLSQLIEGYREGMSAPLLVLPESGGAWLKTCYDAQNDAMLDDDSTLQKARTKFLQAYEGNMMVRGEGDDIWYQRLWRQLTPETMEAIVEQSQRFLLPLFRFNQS
T2 sequence (P08394 whole entry): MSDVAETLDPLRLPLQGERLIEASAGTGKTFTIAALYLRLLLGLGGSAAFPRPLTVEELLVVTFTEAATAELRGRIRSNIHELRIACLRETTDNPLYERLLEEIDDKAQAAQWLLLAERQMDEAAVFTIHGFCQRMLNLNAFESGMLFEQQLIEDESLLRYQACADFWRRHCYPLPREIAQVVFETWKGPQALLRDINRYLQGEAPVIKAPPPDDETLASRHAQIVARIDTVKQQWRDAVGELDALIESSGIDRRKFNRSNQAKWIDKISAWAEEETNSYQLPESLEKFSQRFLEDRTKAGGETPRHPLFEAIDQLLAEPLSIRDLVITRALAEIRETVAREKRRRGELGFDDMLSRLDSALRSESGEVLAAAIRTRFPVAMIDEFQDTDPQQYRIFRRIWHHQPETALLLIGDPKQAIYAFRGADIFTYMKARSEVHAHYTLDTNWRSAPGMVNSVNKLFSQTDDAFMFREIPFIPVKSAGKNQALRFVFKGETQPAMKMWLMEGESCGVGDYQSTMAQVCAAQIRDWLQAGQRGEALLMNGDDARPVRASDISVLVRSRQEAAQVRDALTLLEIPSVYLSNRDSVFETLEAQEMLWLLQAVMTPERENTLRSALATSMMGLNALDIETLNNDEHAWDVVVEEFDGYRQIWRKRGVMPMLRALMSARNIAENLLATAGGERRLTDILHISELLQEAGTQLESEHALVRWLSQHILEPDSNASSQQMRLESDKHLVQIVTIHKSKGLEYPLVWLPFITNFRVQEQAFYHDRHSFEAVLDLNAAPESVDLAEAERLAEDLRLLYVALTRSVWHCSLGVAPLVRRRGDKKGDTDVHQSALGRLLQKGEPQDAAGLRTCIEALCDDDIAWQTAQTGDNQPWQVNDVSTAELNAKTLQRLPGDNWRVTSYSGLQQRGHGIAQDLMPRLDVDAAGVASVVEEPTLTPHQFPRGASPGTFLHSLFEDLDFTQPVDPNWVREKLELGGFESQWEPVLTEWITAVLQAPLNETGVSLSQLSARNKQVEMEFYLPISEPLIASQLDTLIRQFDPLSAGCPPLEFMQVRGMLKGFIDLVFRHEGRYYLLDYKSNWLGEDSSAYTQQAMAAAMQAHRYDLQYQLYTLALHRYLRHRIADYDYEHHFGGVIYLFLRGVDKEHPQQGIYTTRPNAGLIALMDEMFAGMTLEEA
In words: E. coli RecBCD inhibitors, dose response, counter-screen for AddAB inhibitor project, absorbance, V66 E. coli, mutant T4 phage (AID 492957). The format is functional, cell-based, Escherichia coli str. K-12 substr. MG1655.

For assay [7], the target named is NACHT, LRR and PYD domains-containing protein 3 (Homo sapiens, UniProt Q96P20). In words: NALP3 inhibitors in yeast, dose response, luminescent (AID 488799). It is filed as functional.
NACHT, LRR and PYD domains-containing protein 3, sequence (Q96P20 whole entry, the tested form may be a part): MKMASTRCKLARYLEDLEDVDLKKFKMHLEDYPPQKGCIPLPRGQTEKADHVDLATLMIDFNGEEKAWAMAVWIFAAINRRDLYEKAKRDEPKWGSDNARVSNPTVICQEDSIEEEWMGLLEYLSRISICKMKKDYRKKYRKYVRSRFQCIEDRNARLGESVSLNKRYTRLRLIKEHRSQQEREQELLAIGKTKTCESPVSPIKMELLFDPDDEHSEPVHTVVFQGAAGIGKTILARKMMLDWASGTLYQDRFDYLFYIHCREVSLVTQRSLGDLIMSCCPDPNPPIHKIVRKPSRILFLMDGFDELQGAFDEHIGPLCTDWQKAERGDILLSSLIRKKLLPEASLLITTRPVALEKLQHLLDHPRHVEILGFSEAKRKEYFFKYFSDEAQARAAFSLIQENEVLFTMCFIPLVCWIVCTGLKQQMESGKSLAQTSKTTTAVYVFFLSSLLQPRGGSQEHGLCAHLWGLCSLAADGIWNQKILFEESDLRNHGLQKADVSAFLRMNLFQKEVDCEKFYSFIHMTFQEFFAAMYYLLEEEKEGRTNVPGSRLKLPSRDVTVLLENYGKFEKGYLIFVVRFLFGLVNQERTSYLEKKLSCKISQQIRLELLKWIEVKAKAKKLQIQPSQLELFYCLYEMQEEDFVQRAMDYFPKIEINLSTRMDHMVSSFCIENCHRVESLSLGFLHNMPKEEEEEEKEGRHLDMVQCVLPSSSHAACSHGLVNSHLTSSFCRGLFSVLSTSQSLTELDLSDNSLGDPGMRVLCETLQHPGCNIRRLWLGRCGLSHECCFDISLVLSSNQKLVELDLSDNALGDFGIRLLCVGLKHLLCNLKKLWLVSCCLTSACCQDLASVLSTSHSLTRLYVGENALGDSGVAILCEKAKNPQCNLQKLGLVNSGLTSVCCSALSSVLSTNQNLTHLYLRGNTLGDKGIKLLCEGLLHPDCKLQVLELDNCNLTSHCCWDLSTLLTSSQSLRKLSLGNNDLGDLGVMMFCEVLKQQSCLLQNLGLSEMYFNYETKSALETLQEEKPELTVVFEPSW
A short description of assay [8]: Counterscreen for AddAB inhibitors: absorbance-based bacterial cell-based high throughput dose response assay for inhibitors of bacterial viability. [Related pubchem assays (depositor defined):AID435030, AID449728, AID449731, AID488942, AID488955, AID488956]. It is filed as functional.
Assay [9] deals with INS1. Nature of the assay: beta cell apoptosis inhibitors, cytokine rescue, dose response, luminescence, retest (AID 449756).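 Further: cell death triggered by IL-1 beta plus TNF-alpha plus IFN-gamma mixture; protective hits raise ATP signal compared with cytokine alone wells.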 It is filed as functional, cell-based. The conditions noted are these: Rattus norvegicus.
Assay [10] addresses T3, Neuropeptides B/W receptor type 1 (Homo sapiens, UniProt P48145).
T3 sequence (P48145 whole entry): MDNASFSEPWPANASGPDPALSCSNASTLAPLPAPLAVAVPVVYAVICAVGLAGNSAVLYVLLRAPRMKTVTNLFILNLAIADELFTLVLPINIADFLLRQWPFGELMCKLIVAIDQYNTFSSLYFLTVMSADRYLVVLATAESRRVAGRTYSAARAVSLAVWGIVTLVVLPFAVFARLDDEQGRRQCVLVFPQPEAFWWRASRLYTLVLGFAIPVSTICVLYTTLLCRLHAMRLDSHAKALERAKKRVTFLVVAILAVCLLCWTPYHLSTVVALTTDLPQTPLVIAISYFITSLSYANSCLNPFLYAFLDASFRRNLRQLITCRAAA
In words: GPR7 antagonist potency, late-stage follow-up, cell-based, fluorescence, dose response (AID 463251). The format is functional.

The structures appear in SMILES notation. Activity calls are given as the source filed them.

Regarding `N#Cc1ccc(NC(=O)Nc2ccc(Cl)cc2)cc1`, the EC50 in assay [1] is 31.4 µM (active); in [2], > 150 µM (not active); in assay [3], 2.67 µM (active); in [4], 7.48 µM (active); in assay [5], > 150 µM (not active). For the same compound, the values for the IC50 in assay [6], in [7] and in assay [8] were > 119 µM (inactive), 3.53 µM (active) and > 119 µM (inactive), respectively. Also, the AC50 in assay [9] is 4 µM (active).

With `COc1ccc(Oc2c(C)cnn(-c3ccccc3)c2=O)cc1`, the IC50 in assay [10] was > 20 µM (inactive).
